# Tested on: MCH receptors
# Experiment: MCH receptor activity class (method not given)
# Conditions: activity class per percent of control at 10^-7 M or IC50
row,SMILES,class
1,COc1cc(CC(=O)N[C@H]2CC[C@@H](Nc3nc4c(c(N(C)C)n3)CCCC4)CC2)cc(OC)c1 [compound 978],3 (Class 3 The value of percent of control at 10^−7 M was more than 60% or the value of IC50 was more than 200 nM.)
2,CN(C)c1nc(N[C@H]2CC[C@@H](NC(=O)Cc3cc(C(C)(C)C)c(O)c(C(C)(C)C)c3)CC2)nc2c1CCCC2 [compound 979],3 (Class 3 The value of percent of control at 10^−7 M was more than 60% or the value of IC50 was more than 200 nM.)
3,"CN(C)c1cccc(C(=O)N[C@H]2CC[C@@H](Nc3nc4c(c(N(C)C)n3)CCCC4)CC2)c1 [compound 981, 3-(dimethylamino)-N-(cis-4-{[4-(dimethylamino)-5,6,7,8-tetrahydroquinazolin-2-yl]amino}cyclohexyl)benzamide]",2 (Class 2: The value of percent of control at 10^−7 M was from 40% to 60% or the value of IC′50 was from 50 nM to 200 nM.)
4,CN(C)c1nc(N[C@H]2CC[C@@H](NC(=O)c3cc(Br)c(Br)o3)CC2)nc2c1CCCC2 [compound 982],1 (Class 1: The value of percent of control at 10^−7 M was less than 40% or the value of IC50 was less than 50 nM.)
5,CN(C)c1nc(N[C@H]2CC[C@@H](NC(=O)CCC(=O)c3ccc(F)cc3)CC2)nc2c1CCCC2 [compound 983],2 (Class 2: The value of percent of control at 10^−7 M was from 40% to 60% or the value of IC′50 was from 50 nM to 200 nM.)
6,"CC(C(=O)N[C@H]1CC[C@@H](Nc2nc3c(c(N(C)C)n2)CCCC3)CC1)c1ccc(N2Cc3ccccc3C2=O)cc1 (stereo partly drawn) [compound 985, N-(cis-4-{[4-(dimethylamino)-5,6,7,8-tetrahydroquinazolin-2-yl]amino}cyclohexyl)-2-[4-(1-oxo-1,3-dihydro-2H-isoindol-2-yl)pheny]propanamide]",2 (Class 2: The value of percent of control at 10^−7 M was from 40% to 60% or the value of IC′50 was from 50 nM to 200 nM.)
7,"CN(C)c1nc(N[C@H]2CC[C@@H](NC(=O)Cc3c[nH]c4ccccc34)CC2)nc2c1CCCC2 [compound 986, N-(cis-4-{[4-(diniethylamino)-5,6,7,8-tetrahydroquinazolin-2-yl]amino}cyclohexyl)-2-(1H-indol-3-yl)acetamide]",1 (Class 1: The value of percent of control at 10^−7 M was less than 40% or the value of IC50 was less than 50 nM.)
8,Cc1sc(-c2ccccc2)nc1CC(=O)N[C@H]1CC[C@@H](Nc2nc3c(c(N(C)C)n2)CCCC3)CC1 [compound 987],3 (Class 3 The value of percent of control at 10^−7 M was more than 60% or the value of IC50 was more than 200 nM.)
9,COc1ccc(CSC2(CC(=O)N[C@H]3CC[C@@H](Nc4nc5c(c(N(C)C)n4)CCCC5)CC3)CCCCC2)cc1 [compound 989],3 (Class 3 The value of percent of control at 10^−7 M was more than 60% or the value of IC50 was more than 200 nM.)
10,COc1ccc2c(CC(=O)N[C@H]3CC[C@@H](Nc4nc5c(c(N(C)C)n4)CCCC5)CC3)cc(=O)oc2c1 [compound 990],1 (Class 1: The value of percent of control at 10^−7 M was less than 40% or the value of IC50 was less than 50 nM.)
11,Cc1cc(C)c(NC(=O)Nc2ccc(OC(F)(F)F)cc2)c(C(=O)N[C@H]2CC[C@@H](Nc3nc4c(c(N(C)C)n3)CCCC4)CC2)c1 [compound 993],1 (Class 1: The value of percent of control at 10^−7 M was less than 40% or the value of IC50 was less than 50 nM.)
12,CN(C)c1nc(N[C@H]2CC[C@@H](NC(=O)c3cc(Cl)cc(Cl)c3NC(=O)C#Cc3ccccc3)CC2)nc2c1CCCC2 [compound 994],1 (Class 1: The value of percent of control at 10^−7 M was less than 40% or the value of IC50 was less than 50 nM.)
13,CN(C)c1nc(N[C@H]2CC[C@@H](NC(=O)c3cccc(-n4c(-c5ccc(Br)cc5)cc5c4CC(C)(C)CC5=O)c3)CC2)nc2c1CCCC2 [compound 995],3 (Class 3 The value of percent of control at 10^−7 M was more than 60% or the value of IC50 was more than 200 nM.)
14,CN(C)c1nc(N[C@H]2CC[C@@H](NC(=O)Cc3ccccc3C(=O)Nc3ccc(Cl)cc3Cl)CC2)nc2c1CCCC2 [compound 999],3 (Class 3 The value of percent of control at 10^−7 M was more than 60% or the value of IC50 was more than 200 nM.)
15,Cc1c(C(=O)N[C@H]2CC[C@@H](Nc3nc4c(c(N(C)C)n3)CCCC4)CC2)cc(-c2ccccc2)n1CCCN1CCOCC1 [compound 1000],1 (Class 1: The value of percent of control at 10^−7 M was less than 40% or the value of IC50 was less than 50 nM.)
16,CN(C)c1nc(N[C@H]2CC[C@@H](NC(=O)CCCc3ccc([N+](=O)[O-])cc3)CC2)nc2c1CCCC2 [compound 1001],1 (Class 1: The value of percent of control at 10^−7 M was less than 40% or the value of IC50 was less than 50 nM.)
17,CN(C)c1nc(N[C@H]2CC[C@@H](NC(=O)/C=C/c3ccccc3[N+](=O)[O-])CC2)nc2c1CCCC2 [compound 1002],3 (Class 3 The value of percent of control at 10^−7 M was more than 60% or the value of IC50 was more than 200 nM.)

# Same assay, conditions: class by percent of control at 10^-7 M or IC50
row,SMILES,class
1,CN(C)c1nc(N[C@H]2CC[C@@H](NC(=O)Cc3ccccc3I)CC2)nc2c1CCCC2 [compound 957],2 (Class 2: The value of percent of control at 10^−7 M was from 40% to 60% or the value of IC′50 was from 50 nM to 200 nM.)
2,COc1ccc2[nH]c(C)c(CC(=O)N[C@H]3CC[C@@H](Nc4nc5c(c(N(C)C)n4)CCCC5)CC3)c2c1 [compound 958],2 (Class 2: The value of percent of control at 10^−7 M was from 40% to 60% or the value of IC′50 was from 50 nM to 200 nM.)
3,CN(C)c1nc(N[C@H]2CC[C@@H](NC(=O)/C=C/c3cccc([N+](=O)[O-])c3)CC2)nc2c1CCCC2 [compound 959],3 (Class 3 The value of percent of control at 10^−7 M was more than 60% or the value of IC50 was more than 200 nM.)
4,CN(C)c1nc(N[C@H]2CC[C@@H](NC(=O)c3ccccc3Cc3ccccc3)CC2)nc2c1CCCC2 [compound 961],2 (Class 2: The value of percent of control at 10^−7 M was from 40% to 60% or the value of IC′50 was from 50 nM to 200 nM.)
5,CN(C)c1nc(N[C@H]2CC[C@@H](NC(=O)C(c3ccc(Cl)cc3)c3ccc(Cl)cc3)CC2)nc2c1CCCC2 [compound 962],1 (Class 1: The value of percent of control at 10^−7 M was less than 40% or the value of IC50 was less than 50 nM.)
6,Cc1ccc(-c2ccc(C(=O)N[C@H]3CC[C@@H](Nc4nc5c(c(N(C)C)n4)CCCC5)CC3)o2)c([N+](=O)[O-])c1 [compound 963],2 (Class 2: The value of percent of control at 10^−7 M was from 40% to 60% or the value of IC′50 was from 50 nM to 200 nM.)
7,CN(C)c1nc(N[C@H]2CC[C@@H](NC(=O)c3ccc([N+](=O)[O-])s3)CC2)nc2c1CCCC2 [compound 964],1 (Class 1: The value of percent of control at 10^−7 M was less than 40% or the value of IC50 was less than 50 nM.)
8,Cc1cc(C(=O)N[C@H]2CC[C@@H](Nc3nc4c(c(N(C)C)n3)CCCC4)CC2)ccc1[N+](=O)[O-] [compound 965],1 (Class 1: The value of percent of control at 10^−7 M was less than 40% or the value of IC50 was less than 50 nM.)
9,COc1cc(C(=O)N[C@H]2CC[C@@H](Nc3nc4c(c(N(C)C)n3)CCCC4)CC2)ccc1[N+](=O)[O-] [compound 966],1 (Class 1: The value of percent of control at 10^−7 M was less than 40% or the value of IC50 was less than 50 nM.)
10,CN(C)c1nc(N[C@H]2CC[C@@H](NC(=O)c3cn(Cc4ccccc4)c4ccccc34)CC2)nc2c1CCCC2 [compound 967],3 (Class 3 The value of percent of control at 10^−7 M was more than 60% or the value of IC50 was more than 200 nM.)
11,CC(=O)c1cccc(C(=O)N[C@H]2CC[C@@H](Nc3nc4c(c(N(C)C)n3)CCCC4)CC2)c1 [compound 968],1 (Class 1: The value of percent of control at 10^−7 M was less than 40% or the value of IC50 was less than 50 nM.)
12,CN(C)c1nc(N[C@H]2CC[C@@H](NC(=O)C3CCCC[C@H]3C(=O)c3ccccc3)CC2)nc2c1CCCC2 (stereo partly shown) [compound 969],3 (Class 3 The value of percent of control at 10^−7 M was more than 60% or the value of IC50 was more than 200 nM.)
13,"CN(C)c1nc(N[C@H]2CC[C@@H](NC(=O)c3ccc(Br)o3)CC2)nc2c1CCCC2 [compound 970, 5-bromo-N-(cis-4-{[4-(dimethylamino)-5,6,7,8-tetrahydroquinazolin-2-yl]amino}cyclohexyl)-2-furamide]",1 (Class 1: The value of percent of control at 10^−7 M was less than 40% or the value of IC50 was less than 50 nM.)
14,CN(C)c1nc(N[C@H]2CC[C@@H](NC(=O)CCC3CCCCC3)CC2)nc2c1CCCC2 [compound 971],3 (Class 3 The value of percent of control at 10^−7 M was more than 60% or the value of IC50 was more than 200 nM.)
15,Cc1ccnc(SCC(=O)N[C@H]2CC[C@@H](Nc3nc4c(c(N(C)C)n3)CCCC4)CC2)n1 [compound 972],2 (Class 2: The value of percent of control at 10^−7 M was from 40% to 60% or the value of IC′50 was from 50 nM to 200 nM.)
16,CN(C)c1nc(N[C@H]2CC[C@@H](NC(=O)c3ccc(-c4ccc(Cl)cc4)o3)CC2)nc2c1CCCC2 [compound 973],1 (Class 1: The value of percent of control at 10^−7 M was less than 40% or the value of IC50 was less than 50 nM.)
17,CN(C)c1nc(N[C@H]2CC[C@@H](NC(=O)CCc3ccc(Cl)c(Cl)c3)CC2)nc2c1CCCC2 [compound 974],3 (Class 3 The value of percent of control at 10^−7 M was more than 60% or the value of IC50 was more than 200 nM.)
18,CN(C)c1nc(N[C@H]2CC[C@@H](NC(=O)Cc3ccc(Cl)c(Cl)c3)CC2)nc2c1CCCC2 [compound 975],1 (Class 1: The value of percent of control at 10^−7 M was less than 40% or the value of IC50 was less than 50 nM.)
19,COc1cc(CC(=O)N[C@H]2CC[C@@H](Nc3nc4c(c(N(C)C)n3)CCCC4)CC2)cc(OC)c1O [compound 976],1 (Class 1: The value of percent of control at 10^−7 M was less than 40% or the value of IC50 was less than 50 nM.)
20,"CN(C)c1nc(N[C@H]2CC[C@@H](NC(=O)c3cc(Br)c(Br)s3)CC2)nc2c1CCCC2 [compound 977, 4,5-dibromo-N-(cis-4-{[4-(dimethylamino)-5,6,7,8-tetrahydroquinazolin-2-yl]amino}cyclohexyl)thiophene-2-carboxamide]",2 (Class 2: The value of percent of control at 10^−7 M was from 40% to 60% or the value of IC′50 was from 50 nM to 200 nM.)

# — patent US20050197350A1, “Novel quinoline, tetrahydroquinazoline, and pyrimidine derivatives and methods of treatment related to the use thereof” (TAISHO PHARMACEUTICAL CO., LTD., priority 2003, published 2005)
